What was measured:
Experiment in all cases: relative viability (nuclei count vs DMSO), 5 days (fraction); higher = more cells survive
[1] = system: HARA
How it was run: (§1)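 Relative viability was taken as the ratio of nuclei in treated wells to nuclei in vehicle wells. Lung cancer cell lines in 1536-well plates received compounds by pin tool one day after seeding, either one drug alone or a fixed anchor-drug dose plus five library-drug doses (not always all listed) in √10 steps. Nuclei were counted on 4× images after 5 days of treatment, and values are medians of duplicate plates.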

[2] = system: HCC-78
How it was run: as §1

[3] = system: NCI-H520
How it was run: as §1

[4] = system: UMC-11
How it was run: as §1

[5] = system: PC-3 [JPC-3]
How it was run: as §1

[6] = system: NCI-H838
How it was run: as §1

[7] = system: NCI-H1793
How it was run: as §1

[8] = system: COR-L23
How it was run: as §1

[9] = system: NCI-H2405
How it was run: as §1

[10] = system: NCI-H1651
How it was run: as §1

[11] = system: LXF-289
How it was run: as §1

[12] = system: LCLC-97TM1
How it was run: as §1

[13] = system: NCI-H2347
How it was run: as §1

[14] = system: LK-2
How it was run: as §1

[15] = system: RERF-LC-KJ
How it was run: as §1

[16] = system: LOU-NH91
How it was run: as §1

[17] = system: LCLC-103H
How it was run: as §1

[18] = system: NCI-H647
How it was run: as §1

[19] = system: NCI-H23
How it was run: as §1

[20] = system: A-427
How it was run: as §1

[21] = system: 201T
How it was run: as §1

## CN1CCN(CCOc2cc(OC3CCOCC3)c3c(Nc4c(Cl)ccc5c4OCO5)ncnc3c2)CC1 [Saracatinib] + C[C@]1(O)C[C@@H](c2nc(-c3ccc4ccc(-c5ccccc5)nc4c3)c3c(N)nccn32)C1 [Linsitinib] (partner 1 µM)
[1]; first compound 0.02 µM
  relative viability: 0.917
[1]; first compound 0.6325 µM
  relative viability: 0.787
[1]; first compound 2 µM
  relative viability: 0.629
[2]; first compound 0.02 µM
  relative viability: 0.52
[2]; first compound 0.2 µM
  relative viability: 0.505
[2]; first compound 0.6325 µM
  relative viability: 0.753
[2]; first compound 2 µM
  relative viability: 0.497
[3]; first compound 0.02 µM
  relative viability: 0.911
[3]; first compound 0.2 µM
  relative viability: 0.786
[3]; first compound 0.6325 µM
  relative viability: 0.825
[3]; first compound 2 µM
  relative viability: 0.504
[4]; first compound 0.02 µM
  relative viability: 1.09
[4]; first compound 0.6325 µM
  relative viability: 0.956
[4]; first compound 2 µM
  relative viability: 0.8
[5]; first compound 0.02 µM
  relative viability: 0.961
[5]; first compound 0.2 µM
  relative viability: 0.891
[5]; first compound 0.6325 µM
  relative viability: 0.875
[5]; first compound 2 µM
  relative viability: 0.583
[6]; first compound 0.02 µM
  relative viability: 0.997
[6]; first compound 0.2 µM
  relative viability: 0.871
[6]; first compound 0.6325 µM
  relative viability: 0.749
[6]; first compound 2 µM
  relative viability: 0.838
[7]; first compound 0.02 µM
  relative viability: 0.876
[7]; first compound 0.2 µM
  relative viability: 0.447
[7]; first compound 0.6325 µM
  relative viability: 0.993
[7]; first compound 2 µM
  relative viability: 0.783
[8]; first compound 0.02 µM
  relative viability: 0.86
[8]; first compound 0.2 µM
  relative viability: 0.558
[8]; first compound 0.6325 µM
  relative viability: 0.789
[8]; first compound 2 µM
  relative viability: 0.584
[9]; first compound 0.02 µM
  relative viability: 0.87
[9]; first compound 0.2 µM
  relative viability: 0.829
[9]; first compound 0.6325 µM
  relative viability: 0.466
[9]; first compound 2 µM
  relative viability: 0.372
[10]; first compound 0.02 µM
  relative viability: 0.944
[10]; first compound 0.2 µM
  relative viability: 0.661
[10]; first compound 0.6325 µM
  relative viability: 0.807
[10]; first compound 2 µM
  relative viability: 0.67
[11]; first compound 0.02 µM
  relative viability: 0.979
[11]; first compound 0.2 µM
  relative viability: 0.92
[11]; first compound 0.6325 µM
  relative viability: 0.968
[11]; first compound 2 µM
  relative viability: 0.963
[12]; first compound 0.02 µM
  relative viability: 0.17
[12]; first compound 0.2 µM
  relative viability: 0.127
[12]; first compound 0.6325 µM
  relative viability: 0.197
[12]; first compound 2 µM
  relative viability: 0.272
[13]; first compound 0.02 µM
  relative viability: 0.916
[13]; first compound 0.2 µM
  relative viability: 0.902
[13]; first compound 0.6325 µM
  relative viability: 1.13
[13]; first compound 2 µM
  relative viability: 0.936
[14]; first compound 0.02 µM
  relative viability: 0.52
[14]; first compound 0.2 µM
  relative viability: 0.484
[14]; first compound 0.6325 µM
  relative viability: 0.375
[14]; first compound 2 µM
  relative viability: 0.3
[15]; first compound 0.02 µM
  relative viability: 0.938
[15]; first compound 0.2 µM
  relative viability: 0.83
[15]; first compound 0.6325 µM
  relative viability: 0.883
[15]; first compound 2 µM
  relative viability: 0.813
[16]; first compound 0.02 µM
  relative viability: 0.901
[16]; first compound 0.2 µM
  relative viability: 0.603
[16]; first compound 0.6325 µM
  relative viability: 0.594
[16]; first compound 2 µM
  relative viability: 0.518
[17]; first compound 0.02 µM
  relative viability: 1.18
[17]; first compound 0.2 µM
  relative viability: 0.873
[17]; first compound 0.6325 µM
  relative viability: 1.04
[17]; first compound 2 µM
  relative viability: 1.04
[18]; first compound 0.02 µM
  relative viability: 1.05
[18]; first compound 0.2 µM
  relative viability: 0.943
[18]; first compound 0.6325 µM
  relative viability: 1.14
[18]; first compound 2 µM
  relative viability: 0.514
[19]; first compound 0.02 µM
  relative viability: 0.58
[19]; first compound 0.6325 µM
  relative viability: 0.558
[19]; first compound 2 µM
  relative viability: 0.466
[20]; first compound 0.02 µM
  relative viability: 1.03
[20]; first compound 0.2 µM
  relative viability: 1.08
[20]; first compound 0.6325 µM
  relative viability: 1.12
[20]; first compound 2 µM
  relative viability: 1.11
[21]; first compound 0.02 µM
  relative viability: 1.05
[21]; first compound 0.2 µM
  relative viability: 0.927
[21]; first compound 0.6325 µM
  relative viability: 0.91
[21]; first compound 2 µM
  relative viability: 0.809

## CN1CCN(CCOc2cc(OC3CCOCC3)c3c(Nc4c(Cl)ccc5c4OCO5)ncnc3c2)CC1 [Saracatinib] + Cc1nc(NC(=O)N2CCC[C@H]2C(N)=O)sc1-c1ccnc(C(C)(C)C(F)(F)F)c1 [Alpelisib] (partner 2 µM)
[1]; first compound 0.02 µM
  relative viability: 0.904
[1]; first compound 0.6325 µM
  relative viability: 0.707
[1]; first compound 2 µM
  relative viability: 0.513
[2]; first compound 0.02 µM
  relative viability: 0.29
[2]; first compound 0.2 µM
  relative viability: 0.328
[2]; first compound 0.6325 µM
  relative viability: 0.479
[2]; first compound 2 µM
  relative viability: 0.323
[3]; first compound 0.02 µM
  relative viability: 0.901
[3]; first compound 0.2 µM
  relative viability: 0.779
[3]; first compound 0.6325 µM
  relative viability: 0.545
[3]; first compound 2 µM
  relative viability: 0.493
[4]; first compound 0.02 µM
  relative viability: 0.99
[4]; first compound 0.6325 µM
  relative viability: 1.03
[4]; first compound 2 µM
  relative viability: 0.768
[5]; first compound 0.02 µM
  relative viability: 0.998
[5]; first compound 0.2 µM
  relative viability: 0.956
[5]; first compound 0.6325 µM
  relative viability: 0.876
[5]; first compound 2 µM
  relative viability: 0.53
[6]; first compound 0.02 µM
  relative viability: 0.993
[6]; first compound 0.2 µM
  relative viability: 0.929
[6]; first compound 0.6325 µM
  relative viability: 0.771
[6]; first compound 2 µM
  relative viability: 0.803
[7]; first compound 0.02 µM
  relative viability: 0.722
[7]; first compound 0.2 µM
  relative viability: 0.75
[7]; first compound 0.6325 µM
  relative viability: 0.793
[7]; first compound 2 µM
  relative viability: 0.74
[8]; first compound 0.02 µM
  relative viability: 0.755
[8]; first compound 0.2 µM
  relative viability: 0.621
[8]; first compound 0.6325 µM
  relative viability: 0.591
[8]; first compound 2 µM
  relative viability: 0.603
[9]; first compound 0.02 µM
  relative viability: 0.796
[9]; first compound 0.2 µM
  relative viability: 0.821
[9]; first compound 0.6325 µM
  relative viability: 0.413
[9]; first compound 2 µM
  relative viability: 0.284
[10]; first compound 0.02 µM
  relative viability: 1.02
[10]; first compound 0.2 µM
  relative viability: 0.729
[10]; first compound 0.6325 µM
  relative viability: 0.913
[10]; first compound 2 µM
  relative viability: 0.804
[11]; first compound 0.02 µM
  relative viability: 1.03
[11]; first compound 0.2 µM
  relative viability: 0.908
[11]; first compound 0.6325 µM
  relative viability: 1.02
[11]; first compound 2 µM
  relative viability: 0.985
[12]; first compound 0.02 µM
  relative viability: 0.198
[12]; first compound 0.2 µM
  relative viability: 0.195
[12]; first compound 0.6325 µM
  relative viability: 0.357
[12]; first compound 2 µM
  relative viability: 0.282
[13]; first compound 0.02 µM
  relative viability: 1.03
[13]; first compound 0.2 µM
  relative viability: 0.835
[13]; first compound 0.6325 µM
  relative viability: 1.12
[13]; first compound 2 µM
  relative viability: 0.902
[14]; first compound 0.02 µM
  relative viability: 0.956
[14]; first compound 0.2 µM
  relative viability: 0.851
[14]; first compound 0.6325 µM
  relative viability: 1.02
[14]; first compound 2 µM
  relative viability: 0.531
[15]; first compound 0.02 µM
  relative viability: 0.894
[15]; first compound 0.2 µM
  relative viability: 0.954
[15]; first compound 0.6325 µM
  relative viability: 0.831
[15]; first compound 2 µM
  relative viability: 0.662
[16]; first compound 0.02 µM
  relative viability: 0.683
[16]; first compound 0.2 µM
  relative viability: 0.5
[16]; first compound 0.6325 µM
  relative viability: 0.554
[16]; first compound 2 µM
  relative viability: 0.449
[17]; first compound 0.02 µM
  relative viability: 0.972
[17]; first compound 0.2 µM
  relative viability: 0.831
[17]; first compound 0.6325 µM
  relative viability: 0.899
[17]; first compound 2 µM
  relative viability: 0.893
[18]; first compound 0.02 µM
  relative viability: 1.09
[18]; first compound 0.2 µM
  relative viability: 0.83
[18]; first compound 0.6325 µM
  relative viability: 0.635
[18]; first compound 2 µM
  relative viability: 0.36
[19]; first compound 0.02 µM
  relative viability: 0.616
[19]; first compound 0.6325 µM
  relative viability: 0.752
[19]; first compound 2 µM
  relative viability: 0.526
[20]; first compound 0.02 µM
  relative viability: 1.09
[20]; first compound 0.2 µM
  relative viability: 0.916
[20]; first compound 0.6325 µM
  relative viability: 1.07
[20]; first compound 2 µM
  relative viability: 1.01
[21]; first compound 0.02 µM
  relative viability: 1.09
[21]; first compound 0.2 µM
  relative viability: 0.865
[21]; first compound 0.6325 µM
  relative viability: 0.856
[21]; first compound 2 µM
  relative viability: 0.772
